The target in the test is RIPK2 enzyme (Homo sapiens (Human), UniProt O43353). The test can be described thus: RIPK2 inhibition assay, TR-FRET LanthaScreen Tracer 199 screening assay. It is filed as binding. Conditions: 5 nM RIPK2 enzyme, Tracer 199 at 50 nM, Eu-anti-His Antibody at 2 nM, 1 hour incubation. In short, it runs like this: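 TR-FRET binding displacement: 5 nM RIPK2, 50 nM Tracer 199, 2 nM Eu-anti-His antibody in 1× kinase reaction buffer, 1 h, read at room temperature (340 ex/665 and 615 em). No-enzyme background subtracted; percent inhibition versus uninhibited controls, IC50 from unconstrained variable-slope fit.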
Sequence of RIPK2 enzyme (O43353 whole entry): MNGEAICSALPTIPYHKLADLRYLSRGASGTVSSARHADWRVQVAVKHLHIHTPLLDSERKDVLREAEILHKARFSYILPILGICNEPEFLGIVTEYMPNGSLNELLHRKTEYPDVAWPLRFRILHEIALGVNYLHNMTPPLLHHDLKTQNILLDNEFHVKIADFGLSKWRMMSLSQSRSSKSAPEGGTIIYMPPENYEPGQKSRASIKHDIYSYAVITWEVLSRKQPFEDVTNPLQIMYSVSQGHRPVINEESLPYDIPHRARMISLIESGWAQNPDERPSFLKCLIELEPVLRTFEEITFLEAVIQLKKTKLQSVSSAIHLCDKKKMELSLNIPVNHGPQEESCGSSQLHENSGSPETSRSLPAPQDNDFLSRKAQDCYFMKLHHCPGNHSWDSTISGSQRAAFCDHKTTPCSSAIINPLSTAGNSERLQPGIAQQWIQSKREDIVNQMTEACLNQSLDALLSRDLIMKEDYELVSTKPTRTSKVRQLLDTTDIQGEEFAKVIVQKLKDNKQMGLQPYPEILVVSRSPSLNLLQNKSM
Background: Time-resolved FRET reads energy transfer from a long-lived donor to a nearby acceptor.

The IC50 is the concentration that inhibits the measured activity by half. Read a low IC50 as greater potency.

As to `Fc1cc2scnc2c(F)c1Nc1ccnc2sc(C3CCNC34CCOCC4)cc12` (stereo not shown) [Example 102, N-(2-(8-oxa-1-azaspiro[4.5]decan-4-yl)thieno[2,3-b]pyridin-4-yl)-4,6-difluorobenzo[d]thiazol-5-amine], the IC50 fell in the range of 10 to 20 nM.
Compound `CN1CCC(c2cc3c(Nc4c(F)cc5scnc5c4F)ccnc3s2)C12CCOCC2` (stereo not shown) [Example 103, 4,6-difluoro-N-(2-(1-methyl-8-oxa-1-azaspiro[4.5]decan-4-yl)thieno[2,3-b]pyridin-4-yl)benzo[d]thiazol-5-amine] showed a 50% inhibitory concentration (IC50) of 20 to 50 nM.
In the case of `CCN1CCC(c2cc3c(Nc4c(F)cc5scnc5c4F)ccnc3s2)C12CCOCC2` (stereo not shown) [Example 104, N-(2-(1-ethyl-8-oxa-1-azaspiro[4.5]decan-4-yl)thieno[2,3-b]pyridin-4-yl)-4,6-difluorobenzo[d]thiazol-5-amine] it was no less than 50 nM.
In the case of `C1=C(c2cc3c(Nc4ccc5scnc5c4)ccnc3s2)CCNCC1` [Example 105, N-(2-(2,3,6,7-tetrahydro-1H-azepin-4-yl)thieno[2,3-b]pyridin-4-yl)benzo[d]thiazol-5-amine] it was no more than 10 nM; in that of `CN1CCC=C(c2cc3c(Nc4ccc5scnc5c4)ccnc3s2)CC1` [Example 106, N-(2-(1-methyl-2,3,6,7-tetrahydro-1H-azepin-4-yl)thieno[2,3-b]pyridin-4-yl)benzo[d]thiazol-5-amine], no more than 10 nM.
`CC(=O)N1CCC=C(c2cc3c(Nc4ccc5scnc5c4)ccnc3s2)CC1` [Example 107, 1-(4-(4-(benzo[d]thiazol-5-ylamino)thieno[2,3-b]pyridin-2-yl)-2,3,6,7-tetrahydro-1H-azepin-1-yl)ethan-1-one] returned a concentration for half-maximal inhibition (IC50) of no more than 10 nM.
In turn, `c1cc(Nc2ccc3scnc3c2)c2cc(C3CCCNCC3)sc2n1` (stereo not shown) [Example 108, N-(2-(azepan-4-yl)thieno[2,3-b]pyridin-4-yl)benzo[d]thiazol-5-amine] registered an IC50 of no more than 10 nM.
In the case of `CN1CCCC(c2cc3c(Nc4ccc5scnc5c4)ccnc3s2)CC1` (stereo not shown) [Example 109, N-(2-(1-methylazepan-4-yl)thieno[2,3-b]pyridin-4-yl)benzo[d]thiazol-5-amine] it was no more than 10 nM; in that of `CCN1CCCC(c2cc3c(Nc4ccc5scnc5c4)ccnc3s2)CC1` (stereo not shown) [Example 110, N-(2-(1-ethylazepan-4-yl)thieno[2,3-b]pyridin-4-yl)benzo[d]thiazol-5-amine], no more than 10 nM.
In the case of `CC(=O)N1CCCC(c2cc3c(Nc4ccc5scnc5c4)ccnc3s2)CC1` (stereo not shown) [Example 111, 1-(4-(4-(benzo[d]thiazol-5-ylamino)thieno[2,3-b]pyridin-2-yl)azepan-1-yl)ethan-1-one] it was 10 to 20 nM; in that of `C1=C(c2cc3c(Nc4ccc5scnc5c4)ccnc3s2)CNCCC1` [Example 112, N-(2-(2,5,6,7-tetrahydro-1H-azepin-3-yl)thieno[2,3-b]pyridin-4-yl)benzo[d]thiazol-5-amine], no more than 10 nM.
In the case of `CN1CCCC=C(c2cc3c(Nc4ccc5scnc5c4)ccnc3s2)C1` [Example 113, N-(2-(1-methyl-2,5,6,7-tetrahydro-1H-azepin-3-yl)thieno[2,3-b]pyridin-4-yl)benzo[d]thiazol-5-amine] it was no more than 10 nM.
In turn, `CC(=O)N1CCCC=C(c2cc3c(Nc4ccc5scnc5c4)ccnc3s2)C1` [Example 114, 1-(6-(4-(benzo[d]thiazol-5-ylamino)thieno[2,3-b]pyridin-2-yl)-2,3,4,7-tetrahydro-1H-azepin-1-yl)ethan-1-one] came in with an IC50 of no more than 10 nM.
In the case of `CC1NCCCCC1c1cc2c(Nc3ccc4scnc4c3)ccnc2s1` (stereo not shown) [Example 115a, N-(2-(2-methylazepan-3-yl)thieno[2,3-b]pyridin-4-yl)benzo[d]thiazol-5-amine] it was no more than 10 nM; in that of `CC1C(c2cc3c(Nc4ccc5scnc5c4)ccnc3s2)CCCCN1C` (stereo not shown) [Example 116a, N-(2-(1,2-dimethylazepan-3-yl)thieno[2,3-b]pyridin-4-yl)benzo[d]thiazol-5-amine], no more than 10 nM; in that of `CC1NCCCCC1c1cc2c(Nc3cc4ncsc4cc3F)ccnc2s1` (stereo not shown) [Example 117c], no more than 10 nM.

(Values after patent US11168093B2, “Thienopyridine inhibitors of RIPK2” (Celgene Corporation, priority 2018, dated 2021).)
